Assay results as given in patent publication US20140235588A1, “SUBSTITUTED 1H-PYRAZOL-1,2,4-OXADIAZOLE DERIVATIVES AS SPHINGOSINE RECEPTOR MODULATORS” (Allergan, Inc., priority 2013, published 2014).

Target: T1, human S1P1 receptor (Homo sapiens, UniProt P21453)
T1 construct: expressed in transfected cells; membranes used
Experiment: GTP γ35S binding assay for S1P1 activity
Assay type: biochemical
Conditions: membranes of cells stably expressing the S1P1 receptor, agonist potency
Description: Compounds of the invention were tested for S1P1 activity using the GTP γ^35S binding assay. These compounds may be assessed for their ability to activate or block activation of the human S1P1 receptor in cells stably expressing the S1P1 receptor.
GTP γ^35S binding was measured in the medium containing (mM) HEPES 25, pH 7.4, MgCl2 10, NaCl 100, dithitothreitol 0.5, digitonin 0.003%, 0.2 nM GTP γ^35S, and 5 μg membrane protein in a volume of 150 μl. Test compounds were included in the concentration range from 0.08 to 5,000 nM unless indicated otherwise. Membranes were incubated with 100 μM 5′-adenylylimmidodiphosphate for 30 min, and subsequently with 10 μM GDP for 10 min on ice.
Drug solutions and membrane were mixed, and then reactions were initiated by adding GTP γ^35S and continued for 30 min at 25° C. Reaction mixtures were filtered over Whatman GF/B filters under vacuum, and washed three times with 3 mL of ice-cold buffer (HEPES 25, pH7.4, MgCl2 10 and NaCl 100). Filters were dried and mixed with scintillant, and counted for ^35S activity using a β-counter. Agonist-induced GTP γ^35S binding was obtained by subtracting that in the absence of agonist. Binding data were analyzed using a non-linear regression method. In case of antagonist assay, the reaction mixture contained 10 nM S1P in the presence of test antagonist at concentrations ranging from 0.08 to 5000 nM.

T1 sequence (P21453 whole entry): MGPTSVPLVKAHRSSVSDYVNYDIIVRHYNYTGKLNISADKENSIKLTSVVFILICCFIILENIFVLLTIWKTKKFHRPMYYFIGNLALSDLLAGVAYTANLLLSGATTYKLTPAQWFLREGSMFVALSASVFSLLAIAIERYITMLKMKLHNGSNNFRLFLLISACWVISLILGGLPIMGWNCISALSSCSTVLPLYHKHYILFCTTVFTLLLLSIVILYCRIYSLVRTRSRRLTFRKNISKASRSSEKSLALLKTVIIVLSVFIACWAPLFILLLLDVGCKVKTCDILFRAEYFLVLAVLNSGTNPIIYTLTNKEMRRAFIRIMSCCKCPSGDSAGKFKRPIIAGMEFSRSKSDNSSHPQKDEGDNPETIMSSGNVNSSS

Row | SMILES | EC50 [nM]
1 | Cn1nc(-c2nc(-c3ccc(CNCCCP(=O)(O)O)cc3)no2)cc1-c1ccccc1 [Compound 1, [3-({4-[5-(1-Methyl-5-phenyl-1H-pyrazol-3-yl)-1,2,4-oxadiazol-3-yl]benzyl}amino)propyl]phosphonic acid] | 32
2 | Cn1nc(-c2nc(-c3ccc(CNCCC(=O)O)cc3)no2)cc1-c1ccccc1 [Compound 2, 3-({4-[5-(1-methyl-5-phenyl-1H-pyrazol-3-yl)-1,2,4-oxadiazol-3-yl]benzyl}amino)propanoic acid] | 658
